According to PubChem BioAssay (NCI):
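Briefly, cells in 96-well plates were exposed to five compound concentrations for 48 h, and endpoints were estimated by linear interpolation. GI50 = concentration required for 50% inhibition of growth. The concentration for full growth arrest is given as TGI.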

Assays:
Experiment in all cases: inhibition of tumour cell growth, NCI panel, 48 h
[1] = test system: SK-MEL-5 melanoma
[2] = test system: KM12 colon
[3] = test system: SF-295 CNS
[4] = test system: SK-MEL-28 melanoma
[5] = test system: OVCAR-8 ovarian
[6] = test system: SN12C renal
[7] = test system: LOX IMVI melanoma
[8] = test system: NCI-H522 lung
[9] = test system: MOLT-4 leukemia
[10] = test system: HT29 colon

Compound	TGI [1]	TGI [2]	TGI [3]	TGI [4]	TGI [5]	TGI [6]	TGI [7]	TGI [8]	TGI [9]	TGI [10]	GI50 [1]	GI50 [2]	GI50 [3]	GI50 [4]	GI50 [5]	GI50 [6]	GI50 [7]	GI50 [8]	GI50 [9]	GI50 [10]
CC(=O)CC(OC(C)=O)C1=CCC2C(CC1C)OC(=O)C2C (centres undefined)	> 100 µM	> 100 µM	> 100 µM	> 100 µM	> 100 µM	> 100 µM	> 100 µM	> 100 µM	> 100 µM	> 100 µM										
COC(=O)CC(c1ccccc1)C1(c2ccccc2)SCCS1 (centres undefined)	> 290 µM	> 290 µM	> 290 µM	> 290 µM	> 290 µM	> 290 µM	> 290 µM	> 290 µM	> 290 µM	> 290 µM										
O=C(/C(=C/c1ccc([N+](=O)[O-])cc1)SCc1ccccc1)c1ccc(Cl)cc1	12.4 µM	6.91 µM	18.9 µM	15.3 µM	15.2 µM	8.58 µM	3.12 µM	10.5 µM	> 100 µM	5.75 µM	3.41 µM	2.34 µM	5.54 µM	4.09 µM	3.98 µM	2.66 µM	1.69 µM	3.96 µM	2.61 µM	2.54 µM
CCOC(=O)C1=C(C(=O)OCC)C2c3ccccc3C=CN2C(C(=O)OCC)=C(SC)S1 (centres undefined)	> 100 µM		> 100 µM	> 100 µM	> 100 µM	> 100 µM	> 100 µM	> 100 µM	> 100 µM	> 100 µM										
CCCCCCCCCCCCCCCC[N+](C)(C)Cc1ccccc1	2.62 µM	2.42 µM	3.29 µM	3.19 µM						2.36 µM	1.33 µM	1.13 µM	1.55 µM	1.68 µM						1.01 µM
CC(=O)NNc1nc(C)c(C(=O)/C=C/c2ccc(NC(C)=O)cc2)s1	> 100 µM	> 100 µM	> 100 µM	> 100 µM	> 100 µM	> 100 µM	> 100 µM	> 100 µM	> 100 µM	> 100 µM										
CCCCCC[C@@H]1CCC2C(CO)[C@@H](O)CC[C@@H]2C1 (some centres undefined)	34.2 µM	36.2 µM	30.3 µM	34.3 µM	33.4 µM	30.6 µM	34.6 µM	31.5 µM	57 µM	34.1 µM										
C[C@]12CCC3c4ccc(O)cc4CCC3C1CC[C@@]2(O)CNC(=O)/C=C/c1ccc(O)c(O)c1 (some centres undefined)	12 µM	11.1 µM	22.1 µM	59 µM	17.1 µM	20.6 µM	6.52 µM	5.91 µM	31.2 µM	19.1 µM	3.23 µM	2.89 µM	4.07 µM	24.8 µM	2.65 µM	7.54 µM	2.37 µM	2.51 µM	5.09 µM	4.83 µM
